Tests used:
[1] = target: Serine/threonine-protein kinase RIO3 (Homo sapiens) (UniProt O14730); conditions: Compound concentration 1000.0 nM
[2] = target: Mitogen-activated protein kinase kinase kinase kinase 4 (Homo sapiens) (UniProt O95819); conditions: Compound concentration 1000.0 nM
[3] = target: Cyclin-dependent kinase 17 (Homo sapiens) (UniProt Q00537); conditions: Compound concentration 1000.0 nM
[4] = target: Muscle, skeletal receptor tyrosine-protein kinase (Homo sapiens) (UniProt O15146); conditions: Compound concentration 1000.0 nM
[5] = tested on: Mast/stem cell growth factor receptor Kit (Homo sapiens), P10721 [V559D,V654A]; conditions: Compound concentration 1000.0 nM
Mast/stem cell growth factor receptor Kit (Homo sapiens), P10721 [V559D,V654A], sequence (P10721 whole entry V559D/V654A): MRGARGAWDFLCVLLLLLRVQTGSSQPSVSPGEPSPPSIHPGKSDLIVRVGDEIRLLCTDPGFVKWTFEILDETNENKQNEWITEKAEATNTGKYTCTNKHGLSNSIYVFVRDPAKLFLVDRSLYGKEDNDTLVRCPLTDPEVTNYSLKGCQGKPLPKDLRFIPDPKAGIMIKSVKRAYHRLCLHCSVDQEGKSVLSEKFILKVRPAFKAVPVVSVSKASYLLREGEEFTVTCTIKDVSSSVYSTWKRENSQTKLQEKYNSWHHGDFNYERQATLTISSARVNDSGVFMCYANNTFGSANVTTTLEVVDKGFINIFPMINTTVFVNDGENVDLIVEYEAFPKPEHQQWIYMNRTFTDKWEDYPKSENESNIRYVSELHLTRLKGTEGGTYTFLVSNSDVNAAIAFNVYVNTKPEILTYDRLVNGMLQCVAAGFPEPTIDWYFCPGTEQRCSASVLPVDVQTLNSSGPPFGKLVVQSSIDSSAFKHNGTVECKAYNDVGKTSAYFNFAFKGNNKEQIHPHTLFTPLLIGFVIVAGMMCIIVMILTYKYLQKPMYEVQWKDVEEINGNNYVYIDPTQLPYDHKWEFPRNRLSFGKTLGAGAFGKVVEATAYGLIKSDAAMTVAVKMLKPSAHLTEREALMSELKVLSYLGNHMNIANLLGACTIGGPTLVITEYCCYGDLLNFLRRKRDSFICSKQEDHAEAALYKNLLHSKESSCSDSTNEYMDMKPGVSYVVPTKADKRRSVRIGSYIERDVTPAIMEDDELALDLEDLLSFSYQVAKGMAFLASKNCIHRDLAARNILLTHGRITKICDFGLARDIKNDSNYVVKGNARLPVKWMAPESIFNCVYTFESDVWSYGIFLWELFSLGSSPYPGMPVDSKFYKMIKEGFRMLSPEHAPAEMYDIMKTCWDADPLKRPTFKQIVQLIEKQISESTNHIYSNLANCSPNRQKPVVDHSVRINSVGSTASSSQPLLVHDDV

[6] = target: Fibroblast growth factor receptor 4 (Homo sapiens) (UniProt P22455); conditions: Compound concentration 1000.0 nM
[7] = target: Serine/threonine-protein kinase DCLK1 (Homo sapiens) (UniProt O15075); conditions: Compound concentration 1000.0 nM
[8] = target: BMP-2-inducible protein kinase (Homo sapiens) (UniProt Q9NSY1); conditions: Compound concentration 1000.0 nM
[9] = target: Phosphatidylinositol 4,5-bisphosphate 3-kinase catalytic subunit beta isoform (Homo sapiens) (UniProt P42338); conditions: Compound concentration 1000.0 nM
[10] = target: Serine/threonine-protein kinase Nek4 (Homo sapiens) (UniProt P51957); conditions: Compound concentration 1000.0 nM
[11] = target: Casein kinase I isoform gamma-1 (Homo sapiens) (UniProt Q9HCP0); conditions: Compound concentration 1000.0 nM
[12] = target: Calcium-dependent protein kinase 1 (Plasmodium falciparum) (UniProt P62344); conditions: Compound concentration 1000.0 nM
[13] = target: Beta-adrenergic receptor kinase 1 (Homo sapiens) (UniProt P25098); conditions: Compound concentration 1000.0 nM
Beta-adrenergic receptor kinase 1 (Homo sapiens), sequence (P25098 whole entry): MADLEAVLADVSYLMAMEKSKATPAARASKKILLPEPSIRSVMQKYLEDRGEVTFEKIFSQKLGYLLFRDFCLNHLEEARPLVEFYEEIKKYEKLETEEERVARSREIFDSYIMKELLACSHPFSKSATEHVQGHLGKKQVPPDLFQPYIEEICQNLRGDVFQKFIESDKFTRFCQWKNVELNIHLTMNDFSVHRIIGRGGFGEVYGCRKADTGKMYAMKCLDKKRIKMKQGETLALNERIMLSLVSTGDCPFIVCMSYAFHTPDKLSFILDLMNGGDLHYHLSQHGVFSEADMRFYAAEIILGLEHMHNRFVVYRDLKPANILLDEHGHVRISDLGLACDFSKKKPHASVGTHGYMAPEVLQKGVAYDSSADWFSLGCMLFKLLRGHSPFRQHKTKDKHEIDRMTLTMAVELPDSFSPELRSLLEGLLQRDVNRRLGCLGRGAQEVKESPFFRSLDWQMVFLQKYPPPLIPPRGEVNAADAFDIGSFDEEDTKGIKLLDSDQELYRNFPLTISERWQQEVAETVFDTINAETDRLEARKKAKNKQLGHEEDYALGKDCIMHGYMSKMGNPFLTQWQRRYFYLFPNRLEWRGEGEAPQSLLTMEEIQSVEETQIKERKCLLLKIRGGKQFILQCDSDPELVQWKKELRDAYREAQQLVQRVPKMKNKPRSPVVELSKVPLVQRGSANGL

[14] = target: Serine/threonine-protein kinase tousled-like 2 (Homo sapiens) (UniProt Q86UE8); conditions: Compound concentration 1000.0 nM
[15] = target: 5-hydroxytryptamine receptor 4 (Homo sapiens) (UniProt Q13639); experiment: 5-HT4 e (h) Eurofins-Cerep binding assay; set-up: ligand concentration 0.3 nM; conditions: filed as antagonist, Compound concentration 10.0 uM
5-hydroxytryptamine receptor 4 (Homo sapiens), sequence (Q13639 whole entry): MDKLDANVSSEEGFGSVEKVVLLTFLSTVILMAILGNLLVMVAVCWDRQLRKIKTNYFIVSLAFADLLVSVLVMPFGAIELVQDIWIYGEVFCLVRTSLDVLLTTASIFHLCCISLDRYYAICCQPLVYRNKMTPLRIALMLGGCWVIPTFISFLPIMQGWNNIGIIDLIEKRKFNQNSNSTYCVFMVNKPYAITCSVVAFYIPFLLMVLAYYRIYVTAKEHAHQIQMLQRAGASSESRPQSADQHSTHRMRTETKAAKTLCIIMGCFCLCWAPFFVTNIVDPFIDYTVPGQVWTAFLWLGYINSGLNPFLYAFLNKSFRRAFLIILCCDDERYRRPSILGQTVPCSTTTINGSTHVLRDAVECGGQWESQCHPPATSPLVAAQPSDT

[16] = target: Death-associated protein kinase 1 (Homo sapiens) (UniProt P53355); conditions: Compound concentration 1000.0 nM
[17] = tested on: Receptor-type tyrosine-protein kinase FLT3 (Homo sapiens), P36888 [D835V]; conditions: Compound concentration 1000.0 nM
[18] = target: Calcium/calmodulin-dependent protein kinase type 1 (Homo sapiens) (UniProt Q14012); conditions: Compound concentration 1000.0 nM
Calcium/calmodulin-dependent protein kinase type 1 (Homo sapiens), sequence (Q14012 whole entry, looked up): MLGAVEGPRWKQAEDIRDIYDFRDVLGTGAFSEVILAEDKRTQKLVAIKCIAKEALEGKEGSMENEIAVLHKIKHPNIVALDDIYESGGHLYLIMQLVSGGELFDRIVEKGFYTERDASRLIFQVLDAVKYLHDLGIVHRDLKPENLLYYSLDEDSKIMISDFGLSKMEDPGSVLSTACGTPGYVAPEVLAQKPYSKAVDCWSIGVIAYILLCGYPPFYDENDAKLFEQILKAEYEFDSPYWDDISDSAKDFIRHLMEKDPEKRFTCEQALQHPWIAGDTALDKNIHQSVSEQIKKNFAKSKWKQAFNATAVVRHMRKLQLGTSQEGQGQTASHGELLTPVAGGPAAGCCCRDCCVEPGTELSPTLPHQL

[19] = target: Alpha-1D adrenergic receptor (Homo sapiens) (UniProt P25100); conditions: Compound concentration 10.0 uM
[20] = target: Phosphatidylinositol 5-phosphate 4-kinase type-2 gamma (Homo sapiens) (UniProt Q8TBX8); conditions: Compound concentration 1000.0 nM
Phosphatidylinositol 5-phosphate 4-kinase type-2 gamma (Homo sapiens), sequence (Q8TBX8 whole entry): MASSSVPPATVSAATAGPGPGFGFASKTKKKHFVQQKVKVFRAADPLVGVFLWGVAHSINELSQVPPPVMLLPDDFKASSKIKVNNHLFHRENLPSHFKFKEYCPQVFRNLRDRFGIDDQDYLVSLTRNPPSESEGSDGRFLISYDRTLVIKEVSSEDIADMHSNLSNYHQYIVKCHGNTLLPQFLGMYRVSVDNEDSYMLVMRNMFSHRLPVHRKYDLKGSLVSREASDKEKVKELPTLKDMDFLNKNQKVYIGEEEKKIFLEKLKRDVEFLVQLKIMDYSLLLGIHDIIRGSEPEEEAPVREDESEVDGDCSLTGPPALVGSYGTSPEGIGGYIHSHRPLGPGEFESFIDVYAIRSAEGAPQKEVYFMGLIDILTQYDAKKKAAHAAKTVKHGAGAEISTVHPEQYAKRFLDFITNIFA

[21] = target: Mitogen-activated protein kinase kinase kinase 20 (Homo sapiens) (UniProt Q9NYL2); conditions: Compound concentration 1000.0 nM
[22] = target: Cyclin-dependent kinase-like 5 (Homo sapiens) (UniProt O76039); conditions: Compound concentration 1000.0 nM
[23] = target: voltage-gated Na+ channel (site 2) (Rattus norvegicus, UniProt F1LQQ7+O08562+O88420+O88457+P04774+P04775+P08104+P15389+P15390+Q62968); experiment: Na+ channel (site 2) Eurofins-Cerep binding assay; format: protein assay; set-up: incubation time 60 min, incubation temperature 37°C, ligand concentration 10 nM; conditions: rat cerebral cortex, probe [3H]batrachotoxin (10 nM), compound concentration 10 uM, read-out: % Inhibition of Control Specific Binding (Mean n=2)
[24] = target: 5-hydroxytryptamine receptor 1B (Homo sapiens) (UniProt P28222); conditions: Compound concentration 10.0 uM
[25] = target: Serine/threonine-protein kinase 10 (Homo sapiens) (UniProt O94804); conditions: Compound concentration 1000.0 nM
[26] = tested on: Hepatocyte growth factor receptor (Homo sapiens), P08581 [Y1235D]; conditions: Compound concentration 1000.0 nM
[27] = target: T1, Muscarinic acetylcholine receptor M5 (Homo sapiens) (UniProt P08912); experiment: M5 (h) Eurofins-Cerep binding assay; set-up: ligand concentration 0.3 nM; conditions: filed as antagonist, Compound concentration 10.0 uM
T1 sequence (whole entry): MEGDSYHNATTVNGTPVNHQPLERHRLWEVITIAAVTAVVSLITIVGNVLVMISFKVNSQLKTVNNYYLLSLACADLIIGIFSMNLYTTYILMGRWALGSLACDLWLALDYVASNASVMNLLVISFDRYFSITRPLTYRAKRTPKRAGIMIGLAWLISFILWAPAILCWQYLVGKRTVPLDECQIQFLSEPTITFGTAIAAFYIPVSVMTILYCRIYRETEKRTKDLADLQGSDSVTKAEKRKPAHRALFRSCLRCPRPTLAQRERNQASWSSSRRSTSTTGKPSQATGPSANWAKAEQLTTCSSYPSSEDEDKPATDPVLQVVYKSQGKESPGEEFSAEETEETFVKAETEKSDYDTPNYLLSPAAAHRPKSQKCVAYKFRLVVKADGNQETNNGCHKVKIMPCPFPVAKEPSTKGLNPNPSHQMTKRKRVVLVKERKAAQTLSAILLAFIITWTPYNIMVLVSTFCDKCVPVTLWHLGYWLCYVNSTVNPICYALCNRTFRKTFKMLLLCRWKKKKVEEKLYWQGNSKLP

[28] = tested on: Receptor-type tyrosine-protein kinase FLT3 (Homo sapiens), P36888 [UNDEFINED MUTATION]; conditions: Compound concentration 1000.0 nM
[29] = target: Neuropeptide Y receptor type 1 (Homo sapiens) (UniProt P25929); experiment: Y1 (h) Eurofins-Cerep binding assay; set-up: ligand concentration 0.025 nM; conditions: filed as agonist, Compound concentration 10.0 uM
Neuropeptide Y receptor type 1 (Homo sapiens), sequence (P25929 whole entry, canonical isoform): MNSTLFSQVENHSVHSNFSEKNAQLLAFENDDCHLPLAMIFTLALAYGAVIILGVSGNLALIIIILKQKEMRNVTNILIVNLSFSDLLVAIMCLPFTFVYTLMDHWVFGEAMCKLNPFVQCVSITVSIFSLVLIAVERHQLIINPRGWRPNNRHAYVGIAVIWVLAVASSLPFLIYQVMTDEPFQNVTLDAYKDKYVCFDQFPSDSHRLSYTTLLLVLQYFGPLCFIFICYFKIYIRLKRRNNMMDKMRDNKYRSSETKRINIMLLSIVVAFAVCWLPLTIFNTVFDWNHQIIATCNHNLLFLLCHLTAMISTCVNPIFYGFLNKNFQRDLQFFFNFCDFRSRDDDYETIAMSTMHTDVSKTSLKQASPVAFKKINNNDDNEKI

[30] = target: Phosphatidylinositol 4,5-bisphosphate 3-kinase catalytic subunit alpha isoform (Homo sapiens) (UniProt P42336); conditions: Compound concentration 1000.0 nM
[31] = target: High affinity nerve growth factor receptor (Homo sapiens) (UniProt P04629); conditions: Compound concentration 1000.0 nM
[32] = target: Mast/stem cell growth factor receptor Kit (Homo sapiens) (UniProt P10721); conditions: Compound concentration 1000.0 nM
Mast/stem cell growth factor receptor Kit (Homo sapiens), sequence (P10721 whole entry): as the sequence (P10721 whole entry V559D/V654A) above, with D559V, A654V counted along it

[33] = target: Mitogen-activated protein kinase 1 (Homo sapiens) (UniProt P28482); conditions: Compound concentration 1000.0 nM
[34] = target: NUAK family SNF1-like kinase 2 (Homo sapiens) (UniProt Q9H093); conditions: Compound concentration 1000.0 nM
NUAK family SNF1-like kinase 2 (Homo sapiens), sequence (Q9H093 whole entry): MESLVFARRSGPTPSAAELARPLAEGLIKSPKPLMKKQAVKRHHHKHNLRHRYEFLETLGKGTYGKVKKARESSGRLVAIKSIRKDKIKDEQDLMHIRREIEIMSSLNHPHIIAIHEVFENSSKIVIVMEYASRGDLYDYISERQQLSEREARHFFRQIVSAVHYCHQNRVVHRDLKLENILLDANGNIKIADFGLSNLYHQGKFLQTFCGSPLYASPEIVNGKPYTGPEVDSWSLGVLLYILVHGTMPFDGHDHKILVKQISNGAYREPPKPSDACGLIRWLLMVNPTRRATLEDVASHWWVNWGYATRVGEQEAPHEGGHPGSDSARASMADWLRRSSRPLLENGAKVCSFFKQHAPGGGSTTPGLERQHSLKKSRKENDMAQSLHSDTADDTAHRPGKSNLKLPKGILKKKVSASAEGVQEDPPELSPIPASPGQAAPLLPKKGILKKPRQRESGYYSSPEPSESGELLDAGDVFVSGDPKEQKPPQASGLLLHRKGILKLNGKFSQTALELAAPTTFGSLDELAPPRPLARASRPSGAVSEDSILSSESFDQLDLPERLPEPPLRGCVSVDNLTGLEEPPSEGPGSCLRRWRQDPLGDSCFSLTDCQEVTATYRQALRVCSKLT

[35] = target: SRSF protein kinase 1 (Homo sapiens) (UniProt Q96SB4); conditions: Compound concentration 1000.0 nM
[36] = target: Sigma intracellular receptor 2 (Homo sapiens, UniProt Q5BJF2); conditions: Compound concentration 10.0 uM
Sigma intracellular receptor 2, sequence (Q5BJF2 whole entry): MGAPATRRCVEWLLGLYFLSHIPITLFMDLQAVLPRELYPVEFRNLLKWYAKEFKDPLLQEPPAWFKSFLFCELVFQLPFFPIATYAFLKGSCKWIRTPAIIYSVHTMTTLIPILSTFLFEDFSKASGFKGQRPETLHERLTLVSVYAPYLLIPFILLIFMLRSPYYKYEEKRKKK

Row | Structure (SMILES) | residual activity [1] | residual activity [2] | residual activity [3] | residual activity [4] | residual activity [5] | residual activity [6] | residual activity [7] | residual activity [8] | residual activity [9] | residual activity [10] | residual activity [11] | residual activity [12] | residual activity [13] | residual activity [14] | % Inhibition of Control Specific Binding (Mean n=2) [15] | residual activity [16] | residual activity [17] | residual activity [18] | inhibition [19] | residual activity [20] | also measured
1 | COc1ccc2c(c1)O[C@@H](c1ccc(OC)c(OC)c1)C[C@H]2NC(=O)C1(c2ccc3c(c2)OC(F)(F)O3)CC1 [A-1596586] | 100% | 100% | 100% | 94% | 100% | 90% | 82% | 100% | 89% | 75% | 99% | 70% | 100% | 100% | 10.2% | 99% | 99% | 100% | 2.75% | 83% | residual activity [21]: 97%; residual activity [22]: 85%; inhibition at 60 min, 10 µM [23]: 35%; inhibition [24]: -0.84%; residual activity [25]: 88%; residual activity [26]: 100%; % Inhibition of Control Specific Binding (Mean n=2) [27]: 35.7%; residual activity [28]: 65%; % Inhibition of Control Specific Binding (Mean n=2) [29]: 9.8%; residual activity [30]: 86%; residual activity [31]: 100%; residual activity [32]: 88%; residual activity [33]: 100%; residual activity [34]: 76%; residual activity [35]: 95%; inhibition [36]: 85.8%
2 | COc1ccc2c(c1)O[C@H](c1ccc(OC)c(OC)c1)C[C@@H]2NC(=O)C1(c2ccc3c(c2)OC(F)(F)O3)CC1 [A-1596584] | 100% | 100% | 100% | 100% | 100% | 100% | 100% | 100% | 100% | 86% | 100% | 79% | 84% | 98% | 5.3% | 100% | 92% | 100% | 0.16% | 83% | residual activity [21]: 97%; residual activity [22]: 100%; inhibition at 60 min, 10 µM [23]: 47.3%; inhibition [24]: -1%; residual activity [25]: 100%; residual activity [26]: 100%; % Inhibition of Control Specific Binding (Mean n=2) [27]: -0.7%; residual activity [28]: 72%; % Inhibition of Control Specific Binding (Mean n=2) [29]: -0.4%; residual activity [30]: 82%; residual activity [31]: 100%; residual activity [32]: 99%; residual activity [33]: 99%; residual activity [34]: 100%; residual activity [35]: 100%; inhibition [36]: 85.3%

— ChEMBL document CHEMBL4507262, “Data for DCP probe A-1596586” (2021)
